Test results from ChEMBL document CHEMBL3886153, “HIV protease inhibitors” (2015).

Molecular target: Gag-Pol polyprotein (Human immunodeficiency virus type 1 group M subtype B (isolate HXB2)(HIV-1), UniProt P04585)
Experiment: Inhibition Assay: The inhibition of WT HIV-1 protease was studied using the reaction of the protease (expressed in Eschericia coli) with a peptide substrate [Val-Ser-Gln-Asn-(betanaphthyl)Ala-Pro-Ile-Val (SEQ ID NO:1)]. Compounds were tested using Procedure A. In Procedure A, the test compound was first preincubated with the enzyme in assay buffer (50 mM sodium acetate, pH 5.5, 100 mM NaCl, and 0.1% BSA) for 30 minutes at room temperature. Substrate was then added to 400 micromolar in a total volume of 80 microliters containing 10 picomolar HIV-1 protease and the reaction was incubated for 1 hour at 30° C. The reaction was quenched with the addition of 120 microliters of 10% phosphoric acid. The product formation was determined after separation of product and substrate on a Zorbax Eclipse XDB-C18 column (Agilent Technologies, Santa Clara, Calif.) connected to an Agilent 1100 high performance liquid chromatography system with fluorescence detection (excitation 270 nanometer and emission 330 nanometer).

| SMILES | IC50 [nM] |
| --- | --- |
| COC(=O)N[C@H](C(=O)N[C@H](c1ccc([C@@H](CO)N(C(C)C)S(=O)(=O)c2ccc(N)cc2)s1)C(F)(F)F)[C@@H](c1ccccc1)c1c[nH]c2ncccc12 | 3.96 |
| COC(=O)N[C@H](C(=O)N[C@H](c1ccc([C@@H](CO)N(CCC(C)(C)C)S(=O)(=O)c2cn3ncnc3cn2)s1)C(F)(F)F)C(c1ccccc1)c1ccccc1 | 3.59 |
| COC(=O)N[C@H](C(=O)NCc1ccc([C@@H](CO)N(CC2CC(F)(F)C2)S(=O)(=O)c2ccc(C(O)C(F)(F)F)cc2)s1)C(c1ccccc1)c1ccccc1 (stereo partly specified) | 26.9 |
| COC(=O)N[C@H](C(=O)N[C@H](c1ccc([C@@H](CO)N(CCC(C)(C)C)S(=O)(=O)c2ccc(=O)[nH]c2)s1)C(F)(F)F)C(c1ccccc1)c1ccccc1 | 9.42 |
| COC(=O)N[C@H](C(=O)N[C@H](c1ccc([C@@H](CO)N(C(C)C)S(=O)(=O)c2ccc(Cl)s2)s1)C(F)(F)F)C(c1ccccc1)c1ccccc1 | 184 |
| COC(=O)N[C@H](C(=O)NCc1ccc([C@@H](CO)N(CC2CC(F)(F)C2)S(=O)(=O)c2ccc(C(C)O)cc2)s1)C(c1ccccc1)c1ccccc1 (stereo partly specified) | 8.97 |
| COC(=O)N[C@H](C(=O)N[C@H](c1ccc([C@@H](CO)N(CCC(C)(C)C)S(=O)(=O)C2=CC3NC=C(Cl)C3C=C2)s1)C(F)(F)F)C(c1ccccc1)c1ccccc1 (stereo partly specified) | 43.8 |
| COC(=O)N[C@H](C(=O)N[C@H](c1ccc(C(CO)N(CCC(C)(C)C)S(=O)(=O)c2ccc(OC)nc2)s1)C(F)(F)F)C(c1ccccc1)c1ccccc1 (stereo partly specified) | 27.5 |
| COC(=O)N[C@H](C(=O)N[C@H](c1ccc([C@@H](CO)N(C(C)C)S(=O)(=O)c2ccc(N)c(Cl)c2)s1)C(F)(F)F)C(c1ccccc1)c1ccccc1 | 92.5 |
| COC(=O)N[C@H](C(=O)NCc1ccc([C@@H](CO)N(CC2CC(F)(F)C2)S(=O)(=O)c2ccc(C(C)=O)cc2)s1)C(c1ccccc1)c1ccccc1 | 11.9 |
| COC(=O)N[C@H](C(=O)N[C@H](c1ccc([C@@H](CO)N(C(C)C)S(=O)(=O)c2cc(N)cs2)s1)C(F)(F)F)C(c1ccccc1)c1ccccc1 | 21.7 |
